Results taken from patent publication US20250288599A1, “PHARMACEUTICAL COMPOSITIONS AND METHODS FOR TREATING OSTEOARTHRITIS” (INSIGNIA PHARMACEUTICALS, LLC, priority 2024, published 2025).

What was measured:
[1] = system: Col1a1 expression in human osteoarthritic chondrocytes; test: Col1a1 relative expression in human osteoarthritic chondrocytes (passage 5) cultured 27 days; assay type: cell-based; conditions: 50 micromolar Dec, 0.1 μM Dxp, 100 mM Lac
Description: (§1) To evaluate the biological ramifications of the SOX9 to RUNX2 regulation mentioned above, delta-delta relative gene expression was assessed against medium controls, with normalization to GAPDH for both Col2a1 and Col1a1 in the samples tested with reference to Example 15. […] Moreover, treatment with 100 mM Lac increased collagen expression (49.88±4.31 and 1.63±0.20 for Col2a1 and Col1a1, respectively; FIGS. 51 and 52).

[2] = system: MMP12 expression in normal human dermal fibroblasts (NHDF); test: MMP12 mRNA in NHDF activated with IL-1β, 24 h, qRT-PCR; assay type: cell-based; conditions: IL-1β 0.1 ng/ml, 100 mM Lac or 0.1 mM Dxp, IL-1β alone 17.8±12.3
Description: (§2) After 24 hours, total mRNA was isolated and delta-delta Cp relative expression was calculated versus untreated medium controls, normalized to the housekeeping gene, GAPDH. Statistical analysis was then conducted via t-test.

[3] = system: MMP3 expression in normal human dermal fibroblasts (NHDF); test: MMP3 mRNA in NHDF activated with IL-1β, 24 h, qRT-PCR; assay type: cell-based; conditions: IL-1β 0.1 ng/ml, 100 mM Lac or 0.1 mM Dxp, IL-1β alone 3.5±1.7
Description: as §2

[4] = system: Col2a1 expression in dedifferentiated osteoarthritic chondrocytes; test: Col2a1 relative expression in dedifferentiated osteoarthritic chondrocytes treated 14 days with Lac; assay type: cell-based, human
Source text: Lac is commonly thought to be simply an end-product of anaerobic glycolysis; however, it may also have immunomodulatory effects and promote protein modifications that alter gene expression. The goal of this experiment was to determine how Lac supplementation affects early-phase, inflammatory, and late-stage redifferentiation in chondrocyte models. To establish how Lac may influence inflammation early in osteoarthritis, monolayers of normal human chondrocytes were exposed to Lac dose responses of up to 100 millimolar, concurrently with 0.5 nanograms per milliliter IL-1β for 48 hours. The release of PGE2 was then quantified using competitive EIA. To investigate how Lac affects transcriptional programs in dedifferentiated osteoarthritic chondrocytes, monolayer cultures and micromass pellets were treated for 14 days with 100 millimolar final concentrations of Lac, with and without 10 nanograms per milliliter transforming growth factor beta 3 (TGF-β3). Total RNA was then isolated, and relative expression of SOX9 or Col2a1 was calculated using qRT-PCR, normalized to GAPDH. […] Lac may also have beneficial effects on osteoarthritic chondrocytes; 100 millimolar final Lac concentrations increased the relative expression of SOX9 and Col2a1 by 8-fold and 1600-fold, respectively, in monolayer cultures. […] Furthermore, adding Lac with TGF-β3 to micromass cultures increased SOX9 and Col2a1 by 9-fold and 88-fold, respectively.

[5] = system: Col2a1 expression in dedifferentiated osteoarthritic chondrocytes; test: Col2a1 relative expression in high passage osteoarthritic chondrocyte monolayer model with TGF-β; assay type: cell-based, human; conditions: 14 days in culture with TGF-β; 28 mM Lac, 100 mm LA
Description: These compounds were tested in a high passage osteoarthritic chondrocyte monolayer model, alone or in combination with other agents, for both transcriptional regulation of standard markers and IL-1β-induced PGE2 production.

[6] = system: Col2a1 expression in human osteoarthritic chondrocytes; test: Col2a1 relative expression in human osteoarthritic chondrocytes (passage 5) cultured 27 days; assay type: cell-based; conditions: 50 micromolar Dec, 0.1 μM Dxp, 100 mM Lac
Description: as §1

[7] = system: PGE2 release from passage 3 normal human chondrocytes; test: Rescue versus preincubation regimens, IL-1β-induced PGE2 release from passage 3 normal human chondrocytes; assay type: cell-based; conditions: 25 μM Dec, 28 mM Lac, 10 μM LA, singlet
Source text: The mechanisms of action (MOA) of a drug often dictate the timing and delivery of treatment regimens. While the MOA of compounds disclosed herein continue to be elucidated, experiments were designed to help establish how the drugs should be administered. Furthermore, these experiments will also help with hypothesis generation for subsequent MOA investigations. A low-passage chondrocyte monolayer model was utilized to establish how changes in drug delivery impact the inhibition of IL-1β-induced PGE2 release seen following treatment with the compounds under investigation.
Passage 3 normal human chondrocytes were seeded into tissue culture plates and then tested for compound activity by pre-treating for 24 hours, administering at the same time as activation, or by adding to cells following an overnight activation with IL-1β. Treatment groups included medium control, 25 μM decanoate (Dec), 28 mM D/L sodium Lac, and 10 μM LA. PGE2 release was then evaluated 24- or 96-hours post-activation with percent inhibitions calculated versus plate- and block-matched controls. The experiments were performed in singlet and are intended to be repeated to establish variance.

[8] = system: PGE2 release from normal human chondrocytes; test: IL-1β-induced PGE2 release from normal human chondrocyte monolayers, 48 h, competitive EIA; assay type: cell-based
Description: Mechanical stress and inflammation are thought to sustain catabolic cycles of extracellular matrix deterioration during osteoarthritis. In particular, PGE2 correlates with increased protease production and discomfort or pain in osteoarthritis.
After 48-hours, PGE2 release was evaluated by competitive EIA, and relative potency was calculated versus dose responses of Dex alone.
After 48 hours, PGE2 release was evaluated by competitive enzyme immunoassay (EIA), and relative potency was calculated versus Dex alone.
Lac is commonly thought to be simply an end-product of anaerobic glycolysis; however, it may also have immunomodulatory effects and promote protein modifications that alter gene expression. The goal of this experiment was to determine how Lac supplementation affects early-phase, inflammatory, and late-stage redifferentiation in chondrocyte models. To establish how Lac may influence inflammation early in osteoarthritis, monolayers of normal human chondrocytes were exposed to Lac dose responses of up to 100 millimolar, concurrently with 0.5 nanograms per milliliter IL-1β for 48 hours. The release of PGE2 was then quantified using competitive EIA. To investigate how Lac affects transcriptional programs in dedifferentiated osteoarthritic chondrocytes, monolayer cultures and micromass pellets were treated for 14 days with 100 millimolar final concentrations of Lac, with and without 10 nanograms per milliliter transforming growth factor beta 3 (TGF-β3). Total RNA was then isolated, and relative expression of SOX9 or Col2a1 was calculated using qRT-PCR, normalized to GAPDH.

[9] = system: SOX9 expression in human osteoarthritic chondrocytes; test: SOX9 relative expression in high and low passage osteoarthritic chondrocytes, 7, 14 or 28 days; assay type: cell-based
Source text: Media was exchanged bi-weekly. […] SOX9 is a transcription factor vital to the development and maintenance of cartilage and is required for chondrogenesis. SOX9 promotes chondrocyte survival and transcriptionally activates cartilage-specific genes. SOX9 is repressed in hypertrophic chondrocytes (i.e. terminally differentiated osteoblast-like cells).

[10] = low passage osteoarthritic chondrocytes, 7, 14, 28 days

## CC(O)C(=O)O (stereo not drawn) [Lac, lactate]
[1]
  Col1a1 delta-delta relative gene expression: 1.63±0.20 fold
[2]
  relative expression of MMP12: 2.2±0.8
[3]
  relative expression of MMP3: 1.5±0.8
[4]; 100 millimolar Lac with TGF-β3, 14 days, micromass cultures
  increase in Col2a1: 88 fold
[4]; 100 millimolar Lac, 14 days, micromass pellets
  increase in collagen: 11 fold
[4]; 100 millimolar Lac, 14 days, monolayer cultures
  increase in relative expression of Col2a1: 1600 fold
[5]
  increase in Col2a1 compared to controls: 30 fold
[6]
  Col2a1 delta-delta relative gene expression: 49.88±4.31 fold
[7]; rescue (added after overnight IL-1β activation), 24-hour harvest
  inhibition of PGE2 release: 64%
[7]; rescue, 96-hour harvest
  inhibition of PGE2 release: 27%
[8]; IL-1β 48 h
  concentration with statistically significant effect on PGE2 release: ≥ 10 millimolar
[8]; Lac 100 millimolar, 0.5 ng/mL IL-1β, 48 h
  inhibition of PGE2 release: complete inhibition
[9]; high passage, dedifferentiated osteoarthritic chondrocytes with TGF-β3, 14 days
  SOX9 expression: increased SOX9 transcription
[9]; [10]
  SOX9 expression: temporal increase in SOX9
  ratio of SOX9/RUNX2: temporally increased
